We go through 23 molecules from patent publication US20080293647A1, “Combined Use Of Vitamin D Derivatives And Anti-Proliferative Agents For Treating Bladder Cancer” (priority 2004, published 2008).

Read-outs that look alike come from different tables or passages of the source. A value given as a limit tells only on which side of the number the result lay.

Holding throughout (type): cell-based
For one assay, the system named is RT4. In words: Inhibition of cell proliferation, RT4 human bladder cancer cells (CyQuant). The conditions noted are these: read-out: Bladder Cancer Cell Lines IC50 (μM) RT4. The protocol:
(§1) After an additional 96-h culture, the medium was removed and the plates frozen at −80° C. Cell proliferation was evaluated using CyQuant cell proliferation assay kit from Molecular Probes (Eugene, Oreg.).

Another assay concerns RT112. Kind of assay: Inhibition of cell proliferation, RT112 human bladder cancer cells (CyQuant). The following applies: read-out: Bladder Cancer Cell Lines IC50 (μM) RT112. The method, then: as §1
The next assay concerns T24. Kind of assay: Inhibition of cell proliferation, T24 human bladder cancer cells (CyQuant). The conditions noted are these: read-out: Bladder Cancer Cell Lines IC50 (μM) T24. The protocol: as §1
In assay [1] the test system is human bladder cancer cell lines. In words: Combination of calcitriol with chemotherapeutic agents, bladder cancer cell line proliferation, combination index method. The conditions noted are these: agent combined with calcitriol; combination index method (CalcuSyn). The protocol:
Proliferation was measured after an additional 96 h using CyQuant cell proliferation assay kit. Drug interactions (as shown in FIG. 1) were evaluated by the median-effect/isobologram method using CalcuSyn software (Biosoft, Cambridge, UK). Combination Indices (CI) were calculated using the non-constant ratio combination design, determining synergism or antagonism for each data point.

Setting [2] is: Homo sapiens, RT-4, 96 h, 96-h culture.
Where [3] appears, read: Homo sapiens, RT-112, 96 h, 96-h culture.
Where [4] appears, read: Homo sapiens, T-24, 96-h culture.

As usually defined, the IC50 is the concentration at which inhibition is half-maximal. As to `C=C1/C(=C\C=C2/CCC[C@]3(C)C(C4(C/C=C\C(O)(C(F)(F)F)C(F)(F)F)CC4)=CCC23)CC(O)C[C@@H]1F` (stereo partly drawn) [1α-Fluoro-25-hydroxy-16,23Z-diene-20-cyclopropyl-26,27-hexafluoro-cholecalciferol], the results for the half-maximal inhibitory concentration (IC50) with RT4 (96-h culture) and in the assay with RT112 (96-h culture) were 3.1 µM and 21 µM, respectively.

With `C[C@]12CCC/C(=C\C=C3\CC(O)C[C@H](O)C3)C1CC=C2C1(C/C=C\C(O)(C(F)(F)F)C(F)(F)F)CC1` (stereo partly drawn) [1α,25-Dihydroxy-16-ene-20-cyclopropyl-23,24-f-ene-2627-hexafluoro-19-nor-cholecalciferol], the IC50 is 2.2 µM in the assay with RT4 (setting [2]) and 9.6 µM in the assay on RT112 (setting [3]).

For `C[C@]12CCC/C(=C\C=C3\CC(O)C[C@H](O)C3)C1CC=C2C1(C/C=C/C(O)(C(F)(F)F)C(F)(F)F)CC1` (stereo partly drawn) [1α,25-hydroxy-16-ene-20-cyclopropyl-23,24-E-ene-26,27-hexafluoro-19-nor-cholecalciferol], the results for the 50% inhibitory concentration (IC50) with RT4 (setting [2]) and with RT112 (setting [3]) were 4.6 µM and 14.5 µM, respectively.

As for `C=C1/C(=C\C=C2/CCC[C@@]3(C)C2CCC3C2(CCCC(C)(C)O)CC2)CC(OC(C)=O)C[C@@H]1OC(C)=O` (some centres unmarked) [1,3-Di-O-acetyl-1,25-dihydroxy-20-cyclopropyl-cholecalciferol], the figures for the IC50 with RT4 (setting [2]), with RT112 (setting [3]) and with T24 (setting [4]) were 10 µM, 9 µM and 52.1 µM, respectively.

Take `C=C1/C(=C\C=C2/CCC[C@]3(C)C(C4(C/C=C/C(O)(C(F)(F)F)C(F)(F)F)CC4)=CCC23)CC(O)C[C@@H]1O` (stereo partly drawn) [1α,25-Dihydroxy-16-ene-20-cyclopropyl-23,24-E-ene-26,27-hexafluoro cholecalciferol]: the half-inhibitory concentration (IC50) with RT4 (setting [2]) is 2.3 µM; in the assay on RT112 (setting [3]), 10.6 µM.

For the molecule `N.N.O=C([O-])C1(C(=O)[O-])CCC1.[Pt+2]` [carboplatin], the “Synergism or antagonism on bladder cancer cell proliferation in combination with calcitriol” value (from here on “Synergism or antagonism … with calcitriol”) in assay [1] is reported as “does not result in any additive or synergistic effect”.

Regarding `N.N.[Cl][Pt][Cl]` [cisplatin], in assay [1], the “Synergism or antagonism … with calcitriol” value is on record as “does not result in any additive or synergistic effect”.

Take `C=C1/C(=C\C=C2/CCC[C@@]3(C)C2CCC3[C@@H](CCCC(C)(C)O)CCC(O)C(C)(C)O)C[C@@H](O)C[C@@H]1O` (stereo partly drawn) [1,25-Dihydroxy-21(2R,3-dihydroxy-3-methyl-butyl)-20S-Cholecalciferol]: the IC50 in the assay with RT4 (setting [2]) is 62 µM; in the assay on RT112 (setting [3]), 1 µM; with T24 (setting [4]), 69.4 µM.

With `CC(C)(O)CCCC1(C2=CCC3/C(=C/C=C4/CC(O)C[C@H](O)C4)CCC[C@]23C)CC1` (stereo partly drawn) [1α,25-Dihydroxy-16-ene-20-cyclopropyl-19-nor-cholecalciferol], the IC50 was 9.9 µM in the assay on RT4 (setting [2]) and greater than 30 µM in the assay on RT112 (setting [3]).

Turning to `C=C1/C(=C\C=C2/CCC[C@]3(C)C(C4(CCCC(C)(C)O)CC4)=CCC23)CC(O)C[C@@H]1O` (stereo partly drawn) [1α,25-Dihydroxy-16-ene-20-cyclopropyl-cholecalciferol], the concentration for half-maximal inhibition (IC50) with RT4 (setting [2]) is 2 µM; with RT112 (setting [3]) it was 27.6 µM.

Regarding `C=C1/C(=C\C=C2/CCC[C@]3(C)[C@@H]([C@@H](CCCC(C)(C)O)CCC(=O)C(C)(C)O)CC[C@@H]23)C[C@@H](O)C[C@@H]1O` [1,25-dihydroxy-20S-21(3-hydroxy-3-methyl-butyl)-24-keto-cholecalciferol], the results for the half-maximal inhibitory concentration (IC50) in the assay on RT4 (setting [2]) and with RT112 (setting [3]) were 8.3 µM and 25.5 µM, respectively.

As for `C=C1/C(=C\C=C2/CCC[C@]3(C)C(C4(C/C=C/C(O)(C(F)(F)F)C(F)(F)F)CC4)=CCC23)CC(O)C[C@@H]1F` (stereo partly drawn) [1α-Fluoro-25-hydroxy-16,23E-diene-20-cyclopropyl-26,27-hexafluoro-cholecalciferol], the IC50 amounted to 3.6 µM with RT4 (96-h culture) and 17 µM in the assay with RT112 (96-h culture).

With `CC(C)(O)CCC[C@@H](CC[C@@H](O)C(C)(C)O)[C@H]1CC[C@H]2/C(=C/C=C3C[C@@H](O)C[C@H](O)C3)CCC[C@]12C` [1,25-Dihydroxy-21-(2R,3-dihydroxy-3-methyl-butyl)-20S-19-nor-cholecalciferol], the IC50 was 72 µM with RT4 (Homo sapiens, RT-4, 96-h culture); 44 µM with RT112 (Homo sapiens, RT-112, 96-h culture); 99.2 µM in the assay on T24 (setting [4]).

In the case of `COc1cccc2c1C(=O)c1c(O)c3c(c(O)c1C2=O)C[C@@](O)(C(=O)CO)C[C@@H]3O[C@H]1C[C@H](N)[C@H](O)[C@H](C)O1` [doxorubicin], in assay [1], the “Synergism or antagonism … with calcitriol” value is reported as “strong synergistic effect”.

Regarding `C[C@]12CCC/C(=C\C=C3\CC(O)C[C@H](O)C3)C1CC=C2C1(CC#CC(O)(C(F)(F)F)C(F)(F)F)CC1` (some centres unmarked) [14215-Dihydroxy-16-ene-20-cyclopropyl-23,41-yne-26,27-hexafluoro-19-nor-cholecalciferol], the concentration for half-maximal inhibition (IC50) in the assay on RT4 (setting [2]) worked out at 5.2 µM; with RT112 (setting [3]) it was 22.7 µM.

On to `C=C1/C(=C\C=C2/CCC[C@]3(C)C(C4(C/C=C\C(O)(C(F)(F)F)C(F)(F)F)CC4)=CCC23)CC(O)C[C@@H]1O` (stereo partly drawn) [1α,25-Dihydroxy-16-ene-20-cyclopropyl-23,24-Z-ene-26,27-hexafluoro-cholecalciferol], for which the half-maximal inhibitory concentration (IC50) in the assay with RT4 (setting [2]) was found to be 3.3 µM; with RT112 (setting [3]), 15.5 µM.

As for `C=C1/C(=C\C=C2/CCC[C@]3(C)C(C4(CC#CC(O)(C(F)(F)F)C(F)(F)F)CC4)=CCC23)CC(O)C[C@@H]1O` (some centres unmarked) [1,25-Dihydroxy-16-ene-20-cyclopropyl-23,24-yne-26,27 hexafluoro-cholecalciferol], the values for the IC50 in the assay on RT4 (setting [2]) and in the assay on RT112 (setting [3]) were 1.7 µM and 13.8 µM, respectively.

For the molecule `CC(C)(O)CCC[C@@H](CCC(=O)C(C)(C)O)[C@H]1CC[C@H]2/C(=C/C=C3C[C@@H](O)C[C@H](O)C3)CCC[C@]12C` [1,25-dihydroxy-20S-21(3-hydroxy-3-methyl-butyl)-24-keto-19-nor-cholecalciferol], the IC50 with RT4 (setting [2]) was 2.6 µM; with RT112 (setting [3]) it was greater than 30 µM.

For `C=C1/C(=C\C=C2/CCC[C@@]3(C)C2CCC3C(CCCC(C)(C)O)CCC(O)C(C)(C)O)C[C@@H](O)C[C@@H]1O` (stereo partly drawn) [1,25-Dihydroxy-21-(2R,3-dihydroxy-3-methyl-butyl)-20R-Cholecalciferol], the IC50 came to 71 µM with RT4 (setting [2]), 25 µM in the assay on RT112 (setting [3]) and 57.9 µM in the assay with T24 (setting [4]).

Take `CC(=O)O[C@@H]1CC(=C/C=C2\CCC[C@]3(C)C([C@H](C)CCC(=O)C(C)(C)O)=CCC23)C[C@@H](OC(C)=O)C1` (some centres unmarked) [1,3-O-Diacetyl-1,25-Dihydroxy-16-ene-24-Keto-19-nor-Cholecalciferol]: the IC50 in the assay on RT4 (setting [2]) was found to be 17 µM; in the assay on RT112 (setting [3]) it was 6 µM; with T24 (setting [4]) it was 31 µM.

With `C=C1/C(=C\C=C2/CCC[C@]3(C)C([C@@H](C)C/C=C/C(O)(CC)CC)=CC[C@@H]23)C[C@@H](O)C[C@@H]1F` [1-alpha-fluoro-25-hydroxy-16,23E-diene-26,27-bishomo-20-epi-cholecalciferol], the half-inhibitory concentration (IC50) in the assay with RT4 (setting [2]) came out at 16 µM; in the assay with RT112 (setting [3]), 12 µM; in the assay on T24 (setting [4]) it was 28 µM.

On to “1,25-Dihydroxy-21-16,23Z-diene-26,27-hexafluoro-19-nor-cholecalciferol”, for which the results for the IC50 with RT4 (96-h culture), in the assay with RT112 (96-h culture) and in the assay with T24 (96-h culture) were 20 µM, 24 µM and 58.7 µM, respectively.

Regarding `C=C1/C(=C\C=C2/CCC[C@]3(C)C(C4(CC#CC(O)(C(F)(F)F)C(F)(F)F)CC4)=CCC23)CC(O)C[C@@H]1F` (stereo partly drawn) [1α-Fluoro-25-hydroxy-16-ene-20-cyclopropyl-23-yne-26,27-hexafluoro-cholecalciferol], the figures for the half-maximal inhibitory concentration (IC50) in the assay with RT4 (96-h culture) and in the assay with RT112 (96-h culture) were 3.6 µM and 16.9 µM, respectively.
